Test results taken from patent US7192728B2, “Screening assays for agents that alter inhibitor of apoptosis (IAP) protein regulation of caspase activity” (The Burnham Institute, priority 1997, dated 2007).

Key:
[1] = tested on: DEVD-pNA hydrolysis activity in 293 cell cytosolic extracts; assay: Cytochrome c/dATP-induced caspase activation (DEVD hydrolysis) in 293 cell cytosolic extracts; assay type: biochemical, human
293T cells = assay: Caspase-9-induced pro-caspase-3 processing and apoptosis in transfected 293T cells; assay type: cell-based, human; settings: co-transfection with FLAG-caspase-9; for number of apoptotic 293T cells (in words): DAPI staining
Protocol: (§1) Co-immunoprecipitations and immunoblot assays were performed as follows. […] Cells were collected 24–48 hrs later by centrifugation, washed in ice cold PBS and lysed for 20 minutes in lysis buffer (10 mM Hepes, 142 mM KCl, 5 mM MgCl2, 1 mM EGTA, 0.2% NP-40). Lysates were cleared by centrifugation at 16,000×g for 30 minutes. Myc-tagged IAP proteins were immunoprecipitated with 40 μl of anti-myc 9E10 antibody immobilized on Protein G-Sepharose (Santa Cruz) for 2 hrs. Immunoprecipitates were washed 3 times with lysis buffer, and bound proteins separated by SDS-PAGE and analyzed by immunoblotting using antibodies specific for the FLAG epitope (Kodak, Inc.), myc-epitope, or caspase-3.
Cell lysates were prepared 16 hr later for either (A) immunoblot analysis of caspase-3, or (B) DEVD-AFC. Immunoblot analysis of pro-caspase-3 was performed with lysates from cells induced to undergo apoptosis by overexpressing pro-caspase-9 in the absence or presence of the IAPs. For DEVD-AFC analysis, lysates were normalized for total protein content and assayed for hydrolysis of DEVD-AFC as described above. […] In panel D, IAP proteins were immunoprecipitated with anti-myc antibody immobilized on protein G-Sepharose at ˜16 hours post-transfection. Immunoblot analysis with anti-FLAG antibody was employed for detection of pro-caspase-9 in the resulting immune complexes. Lysates from the same cell (50 μg per lane) were also analyzed by immunoblotting using anti-FLAG and anti-myc antibodies to verify expression of […].

pro-caspase-9 [2] = assay: Co-immunoprecipitation of pro-caspase-9 with myc-tagged IAPs in 293T cells; assay type: binding, human; settings: anti-myc immunoprecipitation, anti-FLAG blot
Protocol: as §1
Cell lysates were prepared 16 hr later for either (A) immunoblot analysis of caspase-3, or (B) DEVD-AFC. Immunoblot analysis of pro-caspase-3 was performed with lysates from cells induced to undergo apoptosis by overexpressing pro-caspase-9 in the absence or presence of the IAPs. For DEVD-AFC analysis, lysates were normalized for total protein content and assayed for hydrolysis of DEVD-AFC as described above. […] Lysates from the same cell (50 μg per lane) were also analyzed by immunoblotting using anti-FLAG and anti-myc antibodies to verify expression of […].

pro-caspase-9 [3] = assay: Cytochrome c-induced processing of pro-caspase-9 in 293 cytosolic extracts; assay type: biochemical, human; settings: for cytochrome c-induced pro-caspase-9 processing (in words): 0.2 μM GST-IAP, 30 min at 30° C.
Protocol: Cytochrome c induced processing of pro-caspase-9 was subsequently monitored by SDS-PAGE and autoradiography.
Pro-caspase-9 inhibition by Ac-DEVD-fmk, zVAD-fmk and XIAP was compared as follows. In vitro translated ^35S-labeled pro-caspase-9 was added to cytosolic extracts from 293 cells containing 10 μM cytochrome c and 1 mM dATP. Samples were incubated at 30° C. for 30 minutes in the presence of the indicated concentrations of inhibitors. Proteins were separated on SDS-PAGE gels, dried directly, and exposed to film.

pro-caspase-9 [4] = molecular target: T1, pro-caspase-9 (Homo sapiens, UniProt P55211); assay: GST pull-down binding of in vitro translated pro-caspase-9; settings: about 2 μM GST protein on glutathione-Sepharose
T1 construct: in vitro translated ^35S-labeled pro-caspase-9 and Apaf-1 were incubated individually or together; His6; made in house; host or cells: coupled in vitro transcription/translation in reticulocyte lysate (TNT kit, Promega)
T1 sequence (P55211 1-416): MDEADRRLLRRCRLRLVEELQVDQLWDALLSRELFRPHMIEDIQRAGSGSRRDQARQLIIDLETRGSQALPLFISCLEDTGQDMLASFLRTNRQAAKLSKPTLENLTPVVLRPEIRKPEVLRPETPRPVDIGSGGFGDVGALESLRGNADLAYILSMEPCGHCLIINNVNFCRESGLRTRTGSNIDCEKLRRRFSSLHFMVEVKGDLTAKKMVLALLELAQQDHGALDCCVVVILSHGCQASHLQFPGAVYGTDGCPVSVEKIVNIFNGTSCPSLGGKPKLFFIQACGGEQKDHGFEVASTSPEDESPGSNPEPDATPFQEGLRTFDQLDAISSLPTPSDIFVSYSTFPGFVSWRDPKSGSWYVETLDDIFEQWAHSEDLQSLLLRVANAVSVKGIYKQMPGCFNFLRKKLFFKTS

caspase-7 = molecular target: T2, caspase-7 (Homo sapiens, UniProt P55210); assay: GST pull-down binding to caspase-7; settings: glutathione-Sepharose beads, immunoblot
T2 construct: Purified active caspase concentrations ranged from 0.1 nM to 10 nM; His6; made in house; host or cells: E. coli BL21(DE3)pLysS
T2 sequence (P55210 24-198 limits assumed): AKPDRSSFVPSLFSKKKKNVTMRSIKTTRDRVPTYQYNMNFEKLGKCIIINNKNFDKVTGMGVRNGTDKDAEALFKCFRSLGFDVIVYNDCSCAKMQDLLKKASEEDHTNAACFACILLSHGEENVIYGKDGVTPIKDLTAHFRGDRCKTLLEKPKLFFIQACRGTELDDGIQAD
T2 sequence (P55210 207-303 limits assumed): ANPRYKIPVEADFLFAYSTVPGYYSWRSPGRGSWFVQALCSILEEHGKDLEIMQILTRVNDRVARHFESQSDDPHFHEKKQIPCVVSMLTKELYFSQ
Protocol: Following incubation at 4° C. for 60 min, the beads were removed by centrifugation and washed twice with 100 vol 50 mM Tris (pH 7.5), 150 mM KCl, 2 mM DTT and 0.025% Triton-X100, then subjected to SDS-PAGE and immunoblot assay (see Example I.B.3).

concentration to completely abolish cytochrome c-mediated processing of pro-caspase-9 (pro-caspase-9 [3]; 10 μM cytochrome c, 1 mM dATP, 30° C., 30 min) | association with in vitro translated pro-caspase-9 (in words) (pro-caspase-9 [4]) | binding of caspase-7 (in words) (caspase-7) | Substance | DEVD-pNA hydrolysis, ΔA405 after 15 min ([1]; 293 extracts + cytochrome c/dATP, GST-XIAP 0.2 μM, GST controls 2 μM, His6-S5a 5 μM, untreated ≈0.01) | reduction of cytochrome c/dATP-induced DEVD-pNA hydrolyzing activity ([1]; extracts of cells transfected with pcDNA3-XIAP versus control plasmid) | caspase-9-induced cleavage of pro-caspase-3 and Ac-DEVD-AFC cleavage activity (in words) (293T cells) | number of apoptotic 293T cells (in words) (293T cells) | co-immunoprecipitation of the zymogen form of caspase-9 (in words) (pro-caspase-9 [2]) | potency relative to baculovirus p35 protein at inhibiting cytochrome c-induced processing of pro-caspase-9 (pro-caspase-9 [3]) | cytochrome c-induced pro-caspase-9 processing (in words) (pro-caspase-9 [3]) | DEVD hydrolysis in activated 293 cell cytosolic extracts (in words) ([1]; 3 μM, extracts activated 30 min with cytochrome c and dATP)
less than 0.2 μM | associated with pro-caspase-9 | Specific binding | XIAP: X chromosome linked inhibitor of apoptosis protein (Genbank U32974), used mostly as recombinant GST fusion or expressed from plasmid | approximately the same as untreated control extracts | greater than 50% | markedly reduced | a reduction in the number of apoptotic 293T cells | co-immunoprecipitated | about 5 fold | nearly completely abolished | –
– | associated with pro-caspase-9 | bound | c-IAP-2: cellular IAP protein c-IAP-2/HIAP-1/hMIHC, recombinant GST fusion or myc-tagged | – | – | markedly reduced | a reduction in the number of apoptotic 293T cells | co-immunoprecipitated | – | inhibited pro-caspase-9 processing, albeit to a lesser extent | inhibited DEVD hydrolysis
